Data reported in article PMC10089289, “Well-Defined Heparin Mimetics Can Inhibit Binding of the Trimeric Spike of SARS-CoV-2 in a Length-Dependent Manner” (JACS Au, 2023).

Target: SARS-CoV-2 Delta RBD binding to Vero E6 cells (Severe acute respiratory syndrome coronavirus 2, UniProt P0DTC2, L452R/T478K)
Assay type: cell-based

NCCCCCOC1OC(COS(=O)(=O)O)C(OC2OC(C(=O)O)C(OC3OC(COS(=O)(=O)O)C(OC4OC(C(=O)O)C(OC5OC(COS(=O)(=O)O)C(OC6OC(C(=O)O)C(O)C(O)C6O)C(O)C5NS(=O)(=O)O)C(O)C4OS(=O)(=O)O)C(O)C3NS(=O)(=O)O)C(O)C2OS(=O)(=O)O)C(O)C1NS(=O)(=O)O (stereo not shown) [Compound 1, GlcA-GlcNS6S-IdoA2S-GlcNS6S-IdoA2S-GlcNS6S]
Inhibition of delta RBD binding to Vero E6 cells: does not display inhibition
